US20240246940A1, “HETEROARYL DERIVATIVE COMPOUND AND USE THEREOF” (VORONOI INC., priority 2021, published 2024)

Legend:
Format in all cases: cell-based
[1] = test system: BT-474 cells (HER2 overexpressing cell line); experiment: BT-474 cell proliferation inhibitory activity (CellTiter-Glo, 120 hours); details: Homo sapiens
Method in brief: (§1)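 Cells seeded 24 h (HaCaT 3000/well, N-87 5000/well) or 48 h (SK-BR-3, BT-474 5000/well) before 11-point dosing: 0.2 nM–10 μM (SK-BR-3, BT-474), […]–5 μM (N-87), 0.8 nM–45 μM (HaCaT). CellTiter-Glo luminescence read; GI50 from growth relative to control, triplicate.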

[2] = test system: N-87 cells (HER2 overexpressing cell line); experiment: N-87 cell proliferation inhibitory activity (CellTiter-Glo, 72 hours)
Protocol: To evaluate the cell proliferation inhibitory activity of the compound according to the present invention on HER2 and EGFR kinases, the following method was performed using HER2 overexpressing cell lines (SK-BR-3, BT-474, and N-87) and EGFR expressing cell line (HaCaT).
McCOY'S 5A supplemented with 10% FBS was used for SK-BR-3 cells, RPMI-1640 medium supplemented with 20% FBS was used for BT-474 cancer cells, and RPMI-1640 medium supplemented with 10% FBS was used for N-87 cancer cells. DMEM supplemented with 10% FBS was used for HaCaT cells.
For SK-BR-3 cells, 5000 cells were aliquoted into each well of a white clear bottom 96 well plate (Corning) 48 hours before treatment with the compounds of Examples. For BT-474 cells, 5000 cells were aliquoted into each well of a white clear bottom 96 well plate (Corning) 48 hours before treatment with the compounds of Examples. For N-87 cells, 5000 cells were aliquoted into each well of a white clear bottom 96 well plate (Corning) 24 hours before treatment with the compounds of Examples. For HaCaT cells, 3000 cells were aliquoted into each well of a white clear bottom 96 well plate (Corning) 24 hours before treatment with the compounds of Examples. For SK-BR-3 cells and BT-474 cells, the compounds of Examples were diluted in dimethyl sulfoxide (three-fold dilution, a total of 11 concentrations) and injected each in an amount of 1 μl to a final concentration of 0.2 nM to 10 μM. For N-87 cells, the compounds of Examples were diluted in dimethyl sulfoxide (five-fold dilution, a total of 11 concentrations) and injected each in an amount of 0.5 μl to a final concentration of […] to 5 μM. For HaCaT cells, the compounds of Examples were diluted in dimethyl sulfoxide (three-fold dilution, a total of 11 concentrations) and injected each in an amount of 0.5 μl to a final concentration of 0.8 nM to 45 μM. For the measurement of living cells, the cells were stored at room temperature for 10 minutes using CellTiter-Glo cell viability reagent (Promega) after a certain period of time (SK-BR-3: 120 hours, BT-474: 120 hours, N-87: 72 hours, and HaCaT: 72 hours) post treatment with the compounds of Examples, and the luminescence intensity thereof was measured using a reader (SynergyNeo, Biotek). Each test was repeated three times.
The result values were calculated as a cell growth rate (%) compared to those of the control group. A graph was created using the GraphPad Prism version 5.0 program, and GI50 values were calculated.

[3] = test system: HaCaT cells (EGFR expressing cell line); experiment: HaCaT cell proliferation inhibitory activity (CellTiter-Glo, 72 hours); details: Homo sapiens
Method in brief: as §1

[4] = test system: SK-BR-3 cells (HER2 overexpressing cell line); experiment: SK-BR-3 cell proliferation inhibitory activity (CellTiter-Glo, 120 hours); details: Homo sapiens
Method in brief: as §1

For `C=CC(=O)N1CCC(Oc2cc3c(Nc4cc(-c5ccco5)ccc4OC)ncnc3cc2OC)[C@H](C)C1` (stereo in doubt) [Example 169, 1-((3R,4S)-4-((4-((5-(furan-2-yl)-2-methoxyphenyl)amino)-7-methoxy-quinazolin-6-yl)oxy)-3-methylpiperidin-1-yl)prop-2-en-1-one], the GI50 [1] was no more than 150 nM, the GI50 [2] was no more than 150 nM and the GI50 [3] was no more than 150 nM.

With `C=CC(=O)N1CCC(Oc2cc3c(Nc4cc(-c5ccc(F)c(NC(C)=O)c5F)ccc4OC)ncnc3cc2OC)CC1` [Example 1, N-(3′-((6-((1-acryloylpiperidin-4-yl)oxy)-7-methoxyquinazolin-4-yl)amino)-2,4-difluoro-4′-methoxy-[1,1′-biphenyl]-3-yl)acetamide] the GI50 [1] was no more than 150 nM, the GI50 [2] was no more than 150 nM and the GI50 [3] was greater than 1000 nM.

In the case of `C=CC(=O)N1CCC(Oc2cc3c(Nc4cc(-c5ccc(F)c(NC(=O)C6CC6)c5F)ccc4OC)ncnc3cc2OC)CC1` [Example 2, N-(3'-((6-((1-acryloylpiperidin-4-yl)oxy)-7-methoxy-quinazolin-4-yl)amino)-2,4-difluoro-4′-methoxy-[1,11 biphenyl]-3-yl)cyclopropan-carboxamide], the GI50 [1] is reported as no more than 150 nM, the GI50 [2] is reported as no more than 150 nM and the GI50 [3] is reported as greater than 1000 nM.

With `C=CC(=O)N1CC(Oc2cc3c(Nc4cc(-c5ccc(F)c(NC(=O)C6CC6)c5F)ccc4OC)ncnc3cc2OC)C1` [Example 3, N-(3′-((6-((1-acryloylazetidin-3-yl)oxy)-7-methoxy-quinazolin-4-yl)amino)-2,4-difluoro-4′-methoxy-[1,1′-biphenyl]-3-yl)cyclopropan-carboxamide] the GI50 [1] was no more than 150 nM, the GI50 [2] was no more than 150 nM and the GI50 [3] was 150 to 1000 nM.

For `C=CC(=O)N1CCC(Oc2cc3c(Nc4cc(-c5ccc(F)c(NC(=O)C6CC6)c5)ccc4OC)ncnc3cc2OC)CC1` [Example 4, N-(3′-((6-((1-acryloylpiperidin-4-yl)oxy)-7-methoxy-quinazolin-4-yl)amino)-4-fluoro-4′-methoxy-[1,1'-biphenyl]-3-yl)cyclopropan-carboxamide], the GI50 [1] was no more than 150 nM, the GI50 [2] was no more than 150 nM and the GI50 [3] was greater than 1000 nM.

`C=CC(=O)N1CCC(Oc2cc3c(Nc4cc(-c5ccc(F)c(N6CC(F)(F)C6)c5)ccc4OC)ncnc3cc2OC)CC1` [Example 129, 1-(4-((4-((3′-(3,3-difluoroazetidin-1-yl)-4′-fluoro-4-methoxy-[1,1′-biphenyl]-3-yl)amino)-7-methoxy-quinazolin-6-yl)oxy)piperidin-1-yl)prop-2-en-1-one] was tested, and the GI50 [1] was no more than 150 nM, the GI50 [2] was no more than 150 nM and the GI50 [3] was 150 to 1000 nM.

With `C=CC(=O)N1CCC(Oc2cc3c(Nc4cc(-c5ccc(F)c(N)c5)ccc4OC)ncnc3cc2OC)CC1` [Example 146, 1-(4-((4-((3′-amino-4′-fluoro-4-methoxy-[1,1′-biphenyl]-3-yl)amino)-7-methoxy-quinazolin-6-yl)oxy)piperidin-1-yl)prop-2-en-1-one] the GI50 [4] was no more than 150 nM, the GI50 [2] was no more than 150 nM and the GI50 [3] was greater than 1000 nM.

For `C=CC(=O)N1CC[C@H](Oc2cc3c(Nc4cc(-c5ccco5)ccc4OC)ncnc3cc2OC)[C@H](F)C1` [Example 154, 1-((3R,4S)-3-fluoro-4-((4-((5-(furan-2-yl)-2-methoxy-phenyl)amino)-7-methoxy-quinazolin-6-yl)oxy)piperidin-1-yl)prop-2-en-1-one], the GI50 [1] was no more than 150 nM, the GI50 [2] was no more than 150 nM and the GI50 [3] was no more than 150 nM.

`C=CC(=O)N1CCC(Oc2cc3c(Nc4cc(-c5ccc(F)c(N(C)C)c5F)ccc4OC)ncnc3cc2OC)CC1` [Example 155, 1-(4-((4-((3′-(dimethylamino)-2′,4′-difluoro-4-methoxy-[1,1′-biphenyl]-3-yl)amino)-7-methoxy-quinazolin-6-yl)oxy)piperidin-1-yl)prop-2-en-1-one] showed a GI50 [1] of no more than 150 nM, a GI50 [2] of no more than 150 nM and a GI50 [3] of no more than 150 nM.

With `C=CC(=O)N1CCC(Oc2cc3c(Nc4cc(-c5ccc(F)c(N)c5F)ccc4OC)ncnc3cc2OC)CC1` [Example 158, 1-(4-((4-((3′-amino-2′,4′-difluoro-4-methoxy-[1,1′-biphenyl]-3-yl)amino)-7-methoxy-quinazolin-6-yl)oxy)piperidin-1-yl)prop-2-en-1-one] the GI50 [1] was no more than 150 nM, the GI50 [2] was no more than 150 nM and the GI50 [3] was no more than 150 nM.

`C=CC(=O)N1CCC(Oc2cc3c(Nc4cc(-c5ccc(F)c(N6CCC6)c5)ccc4OC)ncnc3cc2OC)CC1` [Example 159, 1-(4-((4-((3′-(azetidin-1-yl)-4′-fluoro-4-methoxy-[1,1′-biphenyl]-3-yl)amino)-7-methoxy-quinazolin-6-yl)oxy)piperidin-1-yl)prop-2-en-1-one] showed a GI50 [1] of no more than 150 nM, a GI50 [2] of no more than 150 nM and a GI50 [3] of 150 to 1000 nM.

Compound `C=CC(=O)N1CCC(Oc2cc3c(Nc4cc(-c5ccc(F)c(O)c5)ccc4OC)ncnc3cc2OC)CC1` [Example 168, 1-(4-((4-((4′-fluoro-3′-hydroxy-4-methoxy-[1,1′-biphenyl]-3-yl)amino)-7-methoxy-quinazolin-6-yl)oxy)piperidin-1-yl)prop-2-en-1-one] has a GI50 [1] of no more than 150 nM, a GI50 [2] of no more than 150 nM and a GI50 [3] of 150 to 1000 nM.

With `C=CC(=O)N1CCC(Oc2cc3c(Nc4cc(-c5cc(N)c(F)cc5F)ccc4OC)ncnc3cc2OC)CC1` [Example 170, 1-(4-((4-((5′-amino-2′,4′-difluoro-4-methoxy-[1,1′-biphenyl]-3-yl)amino)-7-methoxy-quinazolin-6-yl)oxy)piperidin-1-yl)prop-2-en-1-one] the GI50 [1] was no more than 150 nM, the GI50 [2] was no more than 150 nM and the GI50 [3] was no more than 150 nM.

Work on `C=CC(=O)N1CC[C@@H](Oc2cc3c(Nc4cc(-c5ccco5)ccc4OC)ncnc3cc2OC)[C@H](F)C1` [Example 173, 1-((3R,4R)-3-fluoro-4-((4-((5-(furan-2-yl)-2-methoxyphenyl)amino)-7-methoxy-quinazolin-6-yl)oxy)piperidin-1-yl)prop-2-en-1-one] yielded a GI50 [1] of no more than 150 nM, a GI50 [2] of no more than 150 nM and a GI50 [3] of no more than 150 nM.

`C=CC(=O)N1CCC(Oc2cc3c(Nc4cc(-c5scc6c5OCCO6)ccc4OC)ncnc3cc2OC)CC1` [Example 176, 1-(4-((4-((5-(2,3-dihydrothieno [3,4-b][1,4]dioxin-5-yl)-2-methoxyphenyl)amino)-7-methoxy-quinazolin-6-yl)oxy)piperidin-1-yl)prop-2-en-1-one] was tested, and the GI50 [1] was no more than 150 nM, the GI50 [2] was no more than 150 nM and the GI50 [3] was no more than 150 nM.

`C=CC(=O)N1CC[C@@H](Oc2cc3c(Nc4cc(-c5ccc(F)cc5F)ccc4OC)ncnc3cc2OC)[C@@H](F)C1` [Example 189, 1-((3S,4R)-4-((4-((2′,4′-difluoro-4-methoxy-[1,1′-biphenyl]-3-yl)amino)-7-methoxy-quinazolin-6-yl)oxy)-3-fluoropiperidin-1-yl)prop-2-en-1-one] showed a GI50 [1] of no more than 150 nM, a GI50 [2] of no more than 150 nM and a GI50 [3] of no more than 150 nM.

`C=CC(=O)N1CCC(Oc2cc3c(Nc4cc(-c5ccc(F)cc5F)ccc4OC)ncnc3cc2O[C@@H]2CCOC2)CC1` [Example 281, (R)-1-(4-((4-((2′,4′-difluoro-4-methoxy-[1,1′-biphenyl]-3-yl)amino)-7-((tetrahydrofuran-3-yl)oxy)quinazolin-6-yl)oxy)piperidin-1-yl)prop-2-en-1-one] gave a GI50 [4] of no more than 150 nM, a GI50 [2] of no more than 150 nM and a GI50 [3] of no more than 150 nM.

With `C=CC(=O)N1CC2(C1)CN(c1cc3c(Nc4cc(-c5ccco5)ccc4OC)ncnc3cc1OC)C2` [Example 326, 1-(6-(4-((5-(furan-2-yl)-2-methoxyphenyl)amino)-7-methoxyquinazolin-6-yl)-2,6-diazaspiro[3.3]heptan-2-yl)prop-2-en-1-one] the GI50 [1] was greater than 1000 nM and the GI50 [3] was 150 to 1000 nM.
